From patent US8318928B2, “Fused imidazole carboxamides as TRPV3 modulators” (Glenmark Pharmaceuticals, S.A., priority 2008, dated 2012)

Target: T1, Human TRPV3 expressing CHO cells (Homo sapiens, UniProt Q8NET8)
T1 construct: expressed in transfected cells; host or cells: CHO cells, kept under G-418 selection
T1 sequence (Q8NET8 1-790): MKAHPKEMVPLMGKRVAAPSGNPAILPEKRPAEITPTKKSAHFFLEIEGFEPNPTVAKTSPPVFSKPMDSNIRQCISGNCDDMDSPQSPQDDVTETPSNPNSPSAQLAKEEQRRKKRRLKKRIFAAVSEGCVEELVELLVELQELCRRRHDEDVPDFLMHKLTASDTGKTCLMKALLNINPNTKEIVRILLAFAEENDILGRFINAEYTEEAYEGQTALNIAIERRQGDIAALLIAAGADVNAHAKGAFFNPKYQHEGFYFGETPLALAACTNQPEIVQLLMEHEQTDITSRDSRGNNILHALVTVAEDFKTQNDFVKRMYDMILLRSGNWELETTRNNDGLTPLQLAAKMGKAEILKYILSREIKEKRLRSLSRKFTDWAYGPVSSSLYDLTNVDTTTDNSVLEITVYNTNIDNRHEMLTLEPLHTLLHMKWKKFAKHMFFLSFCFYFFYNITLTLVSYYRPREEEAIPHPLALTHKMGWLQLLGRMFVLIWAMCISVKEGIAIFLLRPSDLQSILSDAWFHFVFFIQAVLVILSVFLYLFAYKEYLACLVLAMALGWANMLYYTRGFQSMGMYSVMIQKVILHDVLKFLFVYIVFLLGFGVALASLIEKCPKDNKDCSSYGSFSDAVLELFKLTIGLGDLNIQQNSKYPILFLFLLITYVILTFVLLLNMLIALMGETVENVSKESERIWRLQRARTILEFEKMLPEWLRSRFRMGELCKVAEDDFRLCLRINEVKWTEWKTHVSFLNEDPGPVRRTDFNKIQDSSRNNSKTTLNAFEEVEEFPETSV
Test: 45Calcium uptake assay: inhibition of 2-APB induced cellular uptake of radioactive calcium
Type: cell-based
Settings: 2-APB 500 μM; for IC50: class symbols; for inhibition at 1 µM / Percentage inhibition at 1.0 μM: compound at 1.0 μM; for inhibition at 1 µM: read-out: Percentage inhibition at 1.0 μM; for inhibition at 10 µM / Percentage inhibition at 10.0 μM: compound at 10.0 μM; for inhibition at 10 µM: read-out: Percentage inhibition at 10.0 μM
Text: Certain illustrative compounds within the scope of the present invention are screened for TRPV3 activity according to a modified procedure described in (a) Tóth, A. et al. Life Sciences 2003, 73, 487-498. (b) McNamara C, R. et al. Proc. Natl. Acad. Sci. U.S.A., 2007, 104, 13525-13530. The screening of the compounds may be carried out by other methods and procedures known to persons skilled in the art.
Screening for TRPV3 Antagonist Using the ^45Calcium Uptake Assay
The inhibition of TRPV3 receptor activation was followed as inhibition of 2-aminoethxydiphenylborate (2-APB) induced cellular uptake of radioactive calcium. Test compounds were dissolved in dimethyl sulfoxide (DMSO) to prepare 20 mM stock solution and then diluted using plain medium with DMEM/F-12 containing 1.8 mM CaCl2 to get desired concentration. Final concentration of DMSO in the reaction was 0.5% (v/v). Human TRPV3 expressing CHO cells were grown in DMEM/F-12 medium with 10% FBS, 1% penicillin-streptomycin solution, 400 μg/mL of G-418. Cells were seeded 24 h prior to the assay in 96 well plates so as to get ˜50,000 cells per well on the day of experiment. Cells were treated with test compounds for 10 minutes followed by addition of 2-APB at a final concentration of 500 μM and 5 μCi/mL ^45Ca^+2 for 4 minutes. Cells were washed and lysed using buffer containing 1% Triton X-100, 0.1% deoxycholate and 0.1% SDS. Radioactivity in the lysate was measured in Packardt Top count after addition of liquid scintillant. Concentration response curves were plotted as a % of maximal response obtained in the absence of test antagonist. IC50 value was calculated from concentration response curve by nonlinear regression analysis using GraphPad PRISM software.
Percentage inhibition at concentrations of 1.0 μM and 10.0 μM are given in the table along with IC50 (nM) details for selected examples.

SMILES	IC50 [µM]	inhibition at 1 µM [%]	inhibition at 10 µM [%]	Percentage inhibition at 1.0 μM [%]	Percentage inhibition at 10.0 μM [%]
CC(C)(C)COc1c(/C=C/c2nc3sccn3c2C(=O)Nc2nc(C3CC3)cs2)cccc1OC(F)F [Example 23, 6-{(E)-2-[2-(2,2-Dimethylpropoxy)-3-(difluoromethoxy)phenyl]vinyl}-N-(4-cyclo-propyl-1,3-thiazol-2-yl)imidazo[2,1-b][1,3]thiazole-5-carboxamide]	< 0.1	93.2	90		
CC(C)(C)COc1c(/C=C/c2nc3sccn3c2C(=O)Nc2cccc(C(F)(F)F)c2)cccc1OC(F)F [Example 24, 6-{(E)-2-[3-(Difluoromethoxy)-2-(2,2-dimethylpropoxy)phenyl]vinyl}-N-(3-trifluoromethylphenyl)imidazo[2,1-b][1,3]thiazole-5-carboxamide]		22.5	37.3		
CC(C)(C)COc1c(/C=C/c2nc3sccn3c2C(=O)NCc2cccc(C(F)(F)F)c2)cccc1OC(F)F [Example 25, 6-{(E)-2-[3-(Difluoromethoxy)-2-(2,2-dimethylpropoxy)phenyl]vinyl}-N-(3-trifluoromethylbenzyl)imidazo[2,1-b][1,3]thiazole-5-carboxamide]		0	18.2		
CC(C)(C)COc1c(/C=C/c2nc3sccn3c2C(=O)Nc2ccc(C#N)cn2)cccc1OC(F)F [Example 26, N-(5-Cyanopyridin-2-yl)-6-{(E)-2-[3-(difluoromethoxy)-2-(2,2-dimethylpropoxy)phenyl]vinyl}imidazo[2,1-b][1,3]thiazole-5-carboxamide]		70.1	77.5		
CC(C)(C)COc1c(/C=C/c2nc3sccn3c2C(=O)NCCC#N)cccc1OC(F)F [Example 30, N-(2-Cyanoethyl)-6-{(E)-2-[3-(difluoromethoxy)-2-(2,2-dimethylpropoxy)phenyl]vinyl}imidazo[2,1-b][1,3]thiazole-5-carboxamide]		21.1	94		
CC(C)(C)COc1c(/C=C/c2nc3sccn3c2C(=O)NCC(F)(F)F)cccc1OC(F)F [Example 31, 6-{(E)-2-[3-(Difluoromethoxy)-2-(2,2-dimethylpropoxy)phenyl]vinyl}-N-(2,2,2-trifluoroethyl)imidazo[2,1-b][1,3]thiazole-5-carboxamide]		60.9	97.7		
CC(C)CCOc1c(/C=C/c2nc3sccn3c2C(=O)Nc2nc(C(F)(F)F)cs2)cccc1OC(F)F [Example 32, 6-{(E)-2-[3-(Difluoromethoxy)-2-[3-methylbutoxy)phenyl]vinyl}-N-[4-(trifluoromethyl)-1,3-thiazol-2-yl]imidazo[2,1-b][1,3]thiazole-5-carboxamide]		63.7	96.6		
CCCCCOc1c(/C=C/c2nc3sccn3c2C(=O)Nc2nc(C3CC3)cs2)cccc1OC(F)F [Example 34]	0.1 to 0.25	78.1	95		
CC(C)(C)COc1c(/C=C/c2nc3ccccn3c2C(=O)Nc2nc(C3CC3)cs2)cccc1OC(F)F [Example 39, 2-{(E)-2-[2-(2,2-Dimethylpropoxy)-3-(difluoromethoxy)phenyl]vinyl}-N-(4-cyclo-propyl-1,3-thiazol-2-yl)imidazo[1,2-a]pyridine-3-carboxamide]		76.1	58.7		
CC(C)(C)COc1c(/C=C/c2nc3ccccn3c2C(=O)Nc2nc(C3CCC3)cs2)cccc1OC(F)F [Example 40, N-(4-Cyclobutyl-1,3-thiazol-2-yl)-2-{(E)-2-[3-(difluoromethoxy)-2-(2,2-dimethyl-propoxy)phenyl]vinyl}imidazo[1,2-c]pyridine-3-carboxamide]				56.41	72.35
CC(C)CCOc1c(/C=C/c2nc3ccccn3c2C(=O)Nc2nc(C(F)(F)F)cs2)cccc1OC(F)F [Example 41, 2-{(E)-2-[3-(Difluoromethoxy)-2-(3-methylbutoxy)phenyl]vinyl}-N-[4-(trifluoromethyl)-1,3-thiazol-2-yl]imidazo[1,2-c]pyridine-3-carboxamide]				52.99	84.65

Further lines, with some results ahead:

IC50 [µM]	inhibition at 1 µM [%]	inhibition at 10 µM [%]	SMILES	Percentage inhibition at 1.0 μM [%]	Percentage inhibition at 10.0 μM [%]
0.1 to 0.25	80.8	89.8	CC(C)(C)COc1c(/C=C/c2nc3sccn3c2C(=O)Nc2nc(C(C)(C)C)cs2)cccc1OC(F)F [Example 21, 6-[(E)-2-(3-(Difluoromethoxy)-2-(2,2-dimethylpropoxy)-phenyl)vinyl]-N-(4-tert-butyl-1,3-thiazol-2-yl)imidazo[2,1-b][1,3]thiazole-5-carboxamide]		
	47.9	86.5	CC(C)(C)COc1c(/C=C/c2nc3sccn3c2C(=O)Nc2nc(C3CCC3)cs2)cccc1OC(F)F [Example 22, 6-{(E)-2-[2-(2,2-Dimethylpropoxy)-3-(difluoromethoxy)phenyl]vinyl}-N-(4-cyclobutyl-1,3-thiazol-2-yl)imidazo[2,1-b][1,3]thiazole-5-carboxamide]		
	25.7	33.9	CC(C)(C)COc1c(/C=C/c2nc3sccn3c2C(=O)Nc2ncc(C(F)(F)F)cc2Cl)cccc1OC(F)F [Example 27, N-[3-Chloro-5-(trifluoromethyl)pyridin-2-yl]-6-{(E)-2-[3-(difluoromethoxy)-2-(2,2-dimethylpropoxy)phenyl]vinyl}imidazo[2,1-b][1,3]thiazole-5-carboxamide]		
	9.45	15.6	CC(C)(C)COc1c(/C=C/c2nc3sccn3c2C(=O)Nc2nc3c(s2)CCC3)cccc1OC(F)F [Example 28, 6-{(E)-2-[2-(2,2-Dimethylpropoxy)-3-(difluoromethoxy)phenyl]vinyl}-N-(5,6-dihydro-4H-cyclopenta[d][1,3]thiazol-2-yl)imidazo[2,1-b][1,3]thiazole-5-carboxamide]		
	24	15.3	CC(C)(C)COc1c(/C=C/c2nc3sccn3c2C(=O)Nc2nc3ccc(F)cc3s2)cccc1OC(F)F [Example 29, 6-{(E)-2-[3-(Difluoromethoxy)-2-(2,2-dimethylpropoxy)phenyl]vinyl}-N-(6-fluoro-1,3-benzothiazol-2-yl)imidazo[2,1-b][1,3]thiazole-5-carboxamide]		
	51.8	93.1	CCCCCOc1c(/C=C/c2nc3sccn3c2C(=O)Nc2nc(C(F)(F)F)cs2)cccc1OC(F)F [Example 33]		
< 0.1	84.3	96.5	O=C(Nc1nc(C2CC2)cs1)c1c(/C=C/c2cccc(OC(F)F)c2OCC2CCC2)nc2sccn12 [Example 35, 6-{(E)-2-[2-(Cyclobutylmethoxy)-3-(difluoromethoxy)phenyl]vinyl}-N-(4-cyclopropyl-1,3-thiazol-2-yl)imidazo[2,1-b][1,3]thiazole-5-carboxamide]		
0.1 to 0.25	93.7	97.7	O=C(Nc1nc(C(F)(F)F)cs1)c1c(/C=C/c2cccc(OC(F)F)c2OCC2CCC2)nc2sccn12 [Example 36, 6-{(E)-2-[2-(Cyclobutylmethoxy)-3-(difluoromethoxy)phenyl]vinyl}-N-[4-(trifluoro-methyl)-1,3-thiazol-2-yl]imidazo[2,1-b][1,3]thiazole-5-carboxamide]		
< 0.1	94.9	97.9	COc1cccc(/C=C/c2nc3ccccn3c2C(=O)Nc2nc(C(F)(F)F)cs2)c1OCC(C)(C)C [Example 37]		
